# Measurements as given in patent publication US12194294B2, “Oral drug delivery devices and methods using iontophoresis” (The Regents of the University of California, priority 2019, dated 2025).
# “Also recorded” adds a separate entry of the source. Read-outs that look alike come from different tables or passages of the source.
# Assays:
# non-diabetic rats = assay: In vivo intestinal iontophoresis using insulin mucoadhesive patches: blood glucose; parameters: species or system rat
# Protocol: Insulin mucoadhesive patches were prepared as described in Banerjee, et al., “Intestinal Mucoadhesive Devices for Oral Delivery of Insulin,” Bioeng. Transl. Med. 1, 338-346 (2016). […] About 110 mg of the mixture was pressed at 3-ton pressure using a hydraulic press into a patch. The patches were then cut into 5×3 mm (length×breadth) sized rectangular smaller patches. One side of the patch was completely covered with aluminum foil using minimal amount of super glue placed at one corner of the foil. Wires with a small section of their protective insulation removed were then stuck on the aluminum foil using super glue. Care was taken not to cover the entire wire placed over the foil with super glue. The exposed wire sticking on to the patches were then taped with an electrical insulating tape to prevent any loss of current in vivo through exposed wire.
# Intestinal iontophoresis was carried out using a 6 V battery connected to the intestine. A potentiometer and an ammeter were used in the electrical circuit to accurately control and measure the electric current. Given that the identified safe threshold for iontophoresis is 0.5 mA/cm^2, the electrical parameters were selected in order to perform the studies using a safe current density of 0.33 mA/cm^2 (Singh, et. al., “Transdermal drug delivery by passive diffusion and iontophoresis: a review,” Med Res Rev., 13(5):569-621 (1993)). For the experiment, the rats were fasted overnight but given free access to water. Prior to the start of intestinal iontophoresis, the rats were anesthetized, a portion of abdomen prepped for surgery and an incision was made in the area to expose the intestine. Experiments were conducted using sterile instruments and following good surgical practices. […] Thereafter current (45-50 μA) was allowed to flow for 1.5 minutes followed by 3.5 minutes of recovery time for 1 h, amounting to a total 18 min of iontophoresis. After 1 h, the patches were left in place but the wires were disconnected from the battery and cut close to the inserted patches. The intestinal incisions with the patches left in place were stitched, the intestine put back into the abdomen and the muscle and skin sutured. Blood glucose was determined at the start of the study and at every 0.5 h till the end of study at 3 h. The rats were kept anesthetized until the end of experiment. Afterwards, the animals were euthanized and the intestinal sections in and around the patches were dissected for further histological examination to determine morphological changes, if any, due to iontophoresis.
# Control experiments with no electric current were conducted similarly.
# About 110 mg of the mixture was pressed at 3-ton pressure using a hydraulic press into a patch. The patches were then cut into 5×3 mm (length×breadth) sized rectangular smaller patches. One side of the patch was completely covered with aluminum foil using minimal amount of super glue placed at one corner of the foil. Wires with a small section of their protective insulation removed were then stuck on the aluminum foil using super glue. Care was taken not to cover the entire wire placed over the foil with super glue. The exposed wire sticking on to the patches were then taped with an electrical insulating tape to prevent any loss of current in vivo through exposed wire.
# The circuit for in vivo experiments was set up as illustrated in FIG. 3. Intestinal iontophoresis was carried out using a 6 V battery connected to the intestine. A potentiometer and an ammeter were used in the electrical circuit to accurately control and measure the electric current. Given that the identified safe threshold for iontophoresis is 0.5 mA/cm2, the electrical parameters were selected in order to perform the studies using a safe current density of 0.33 mA/cm2 [8]. For the experiment, the rats were fasted overnight but given free access to water. […]
# Caco-2 cells [1] = assay: TEER measurement of tight junction integrity in Caco-2 monolayers during FITC-insulin transport study; type: cell-based, human; settings: for TEER decrease: within 15 min
# Protocol: Transport experiments were carried out in triplicates and at least 3 transwells were used per trial for each group. Before the start of the experiment, the existing medium in the transwell was replaced with phenol red, FBS and P/S free DMEM in both the apical (200 μl) and basolateral side (600 μl) and the cells were incubated for 30 min. […] This was performed at 0.25, 0.5, 1, 2, 3 and 5 h. A 50 μA electric current was applied to the cells during the first hour of the study for a period of 10 min, followed by a 10 min recovery period and this was repeated another two times. At the end of 1 h (total 30 min iontophoresis), the transwell plates were kept inside an incubator at 37° C., 5% CO2 and only taken out to remove 100 μl aliquots from the basolateral side followed by replacement with same volume fresh medium at the aforementioned time periods. […] TEER was measured at every time point when aliquots were withdrawn from the transwells.
# Caco-2 monolayers = settings: for FITC-insulin transported across the cells: end of 5 h; for Papp of FITC-insulin across the cells: in 5 h
# Protocol: (§1) Caco-2 human intestinal epithelial cells (passages #5-10) were cultured in DMEM containing 10% v/v FBS and 1% v/v P/S and seeded in 24 well plate transwells at a density of 2×10^5 cells/ml. 200 μl DMEM with cells was placed in apical side while 600 μl cell free DMEM was placed in the basolateral side. The cells were allowed to grow for a period of 18-21 days and medium replaced with fresh DMEM every other day.
# (§2) To maintain sterile conditions, all in vitro experiments including circuit set up were done under aseptic conditions in a biosafety cabinet. A 6 V battery was used to supply electrical current to transwells containing Caco-2 monolayer. The higher potential of the battery was connected to the basolateral side of the transwell while the lower potential of the battery connected to the apical side while taking care not to touch the transwell membranes with Caco-2 cell monolayer. The current applied to the cell was monitored by an ammeter and its value was adjusted to 50 μA using a potentiometer. Three different branches, each attached to an ammeter, potentiometer and transwell were connected in parallel across the battery to enable three different measurements at a time.
# Transport experiments were carried out in triplicates and at least 3 transwells were used per trial for each group. Before the start of the experiment, the existing medium in the transwell was replaced with phenol red, FBS and P/S free DMEM in both the apical (200 μl) and basolateral side (600 μl) and the cells were incubated for 30 minutes. […] This was performed at 0.25, 0.5, 1, 2, 3 and 5 h. A 50 μA electrical current was applied to the cells during the first hour of the study for a period of 10 min, followed by 10 min recovery period and this was repeated another two times. At the end of 1 h (total 30 minutes iontophoresis), the transwell plates were kept inside an incubator at 37° C., 5% CO2 and only taken out to remove 100 μl aliquots from the basolateral side followed by replacement with same volume fresh medium at the aforementioned time periods. […] TEER was measured at every time point when aliquots were withdrawn from the transwells. Apparent permeability coefficient (Papp) was calculated using the equation (Brown, et al., “Dermal and transdermal drug delivery systems: current and future prospects,” Drug Deliv. 13(3):175-87 (2006)):
# The transport enhancement ratio (ER) was calculated using the equation (Brown, et al., 2006): […]
# as §1
# as §2, with “the battery was connected to” for “the battery connected to”, “a potentiometer. […]” for “a potentiometer. Three different branches, each attached to an ammeter, potentiometer and transwell were connected in parallel across the battery to enable three different measurements at a time.”
# Caco-2 cells [2] = assay: Confocal microscopy of FITC-insulin uptake by Caco-2 cells; type: cell-based, human; settings: cells exposed to electric current compared to control wells
# Protocol: On the next day, the transwells were washed with HBSS and the membrane cut out and placed in glass slides. Mounting media with DAPI was added to the membranes and covered with glass slides. Confocal imaging was performed using Olympus Fluoview 1000 Spectral Confocal instrument at 60× magnification.
# On the next day, the transwells were washed with HBSS and the membrane cut out and placed in glass slides. Mounting media with DAPI was added to the membranes and covered with glass slides. Confocal imaging was performed using Olympus Fluoview 1000™ Spectral Confocal instrument at 60× magnification.
# [3] = 1 U/kg, subcutaneously injected, 1.5 h
# [4] = 1 U/kg, subcutaneously injected, 3 h
# [5] = control (no current) wells, 2 h
# [6] = control (no current) wells, 3 h
substance,measurement,setting,value
insulin solution: insulin solution injected intra-intestinally (50 U/kg) or subcutaneously (1 U/kg) as comparison,"blood glucose, % of initial levels",non-diabetic rats; [3],57.9±4.1%
same,maximum drop in blood glucose levels,non-diabetic rats; [3],42%
same,blood glucose drop after recovery,non-diabetic rats; [4],about 17%
same,"blood glucose, % of initial levels",non-diabetic rats; [4],83.3±2.6%
same,drop in blood glucose levels with time,"non-diabetic rats; 50 U/kg, intra-intestinally injected",did not show any drop
Human Insulin,difference in TEER between control and electric current group,Caco-2 cells [1]; at the end at 5 hours,no significant difference
same,TEER drop of initial levels,"Caco-2 cells [1]; electric current, 2 h",35%
same,drop in blood glucose levels,"non-diabetic rats; 50 U/kg patch in intestine, 45-50 μA current, 3 h",63%
same,hypoglycemia,"non-diabetic rats; patches with iontophoresis, rats, up to 3 h",severely hypoglycemic
fluorescein isothiocyanate (FITC)-insulin [FITC-insulin],FITC-insulin transported across the cells,Caco-2 monolayers; control group (no current),about 5.5 μg
same,FITC-insulin transported across the cells,Caco-2 monolayers; electric current applied (50 μA),approximately 14.1 μg
same,"insulin transport across the cells, electric current vs control",Caco-2 monolayers; from 2 hours onwards,significantly higher
same,Papp of FITC-insulin across the cells,Caco-2 monolayers; without electricity,9.9e-07 cm/s
same,Papp of FITC-insulin across the cells,Caco-2 monolayers; without electricity (Example 3),9.9e-07 cm/s
same,TEER reduction of initial levels,Caco-2 cells [1]; [5],around 9%
same,"TEER, % of initial levels",Caco-2 cells [1]; [5],91.2±1.1%
same,TEER reduction of initial levels,Caco-2 cells [1]; [6],~4%
same,"TEER, % of initial levels",Caco-2 cells [1]; [6],95.6±6.5%
same,TEER decrease,Caco-2 cells [1]; control group,no specific decrease
same,TEER drop of initial levels,"Caco-2 cells [1]; electric current, 2 h",35%
same,"TEER, % of initial levels","Caco-2 cells [1]; electric current, 2 h",65.7±3.8%
same,TEER decrease,Caco-2 cells [1]; electric current,10%
same,uptake of FITC-insulin by cells (confocal images),Caco-2 cells [2],presence of higher FITC-insulin; also recorded: higher uptake
same,uptake of FITC-insulin by cells (confocal images),Caco-2 cells [2]; listed as FITCmsulin,higher uptake
